From patent US8680076B2, “Methods of treatment, improvement and prevention using haloaryl substituted aminopurines” (Signal Pharmaceuticals, LLC, priority 2010, dated 2014)
“Also recorded” adds a separate entry of the source.

Assays:
[1] = tested on: dermal fibroblasts from SSc patients; test: Expression of extracellular matrix proteins in dermal fibroblasts from SSc patients (real-time PCR, SirCol); type: cell-based, human
Method: Using fibroblasts isolated from skin biopsies from human systemic sclerosis (SSc) patients, an in vitro study was performed to evaluate whether the selective JNK inhibitor Compound JNKi-1 affects the expression of key extracellular matrix proteins.
(§1) Dermal fibroblasts from two SSc patients were treated for 24 hours (hr) with Compound JNKi-1 at concentrations from 0.1 μM to 10 μM (0.5% DMSO/99.5% cell culture media). To study the effect of Compound JNKi-1 on growth factor-induced collagen expression, recombinant transforming growth factor beta (TGF-β) (final concentration of 10 ng/mL) or platelet-derived growth factor-BB (PDGF-BB) (final concentration of 40 ng/mL) were added to cells 2 hr after the addition of JNK-inhibitor Compound JNKi-1 for 24 hr. The expression of collagen proteins was analyzed by SirCol assay. The messenger ribonucleic acid (mRNA) levels of extracellular proteins were measured by real-time polymerase chain reaction (PCR). The β-actin mRNA was used as internal control for the measurement of Collagen 1a1 mRNA using PCR. Fibroblast proliferation assay was performed in the presence or absence of 1 μM Compound JNKi-1 for 24 hr with the (3-(4,5-Dimethylthiazol-2-yl)-2,5-diphenyltetrazolium bromide) (MTT) assay.
The isolation of fibroblasts from human SSc patients and culture conditions used in this study have been previously described (Akhmetshina A, Dees C, Pileckyte M, Maurer B, Axmann R, Jüngel A, et al., Dual inhibition of c-abl and PDGF receptor signaling by dasatinib and nilotinib for the treatment of dermal fibrosis, FASEB J. 2008; 22(7):2214-22). Fibroblast cultures were obtained from skin biopsies of SSc patients. […] Biopsies from SSc patients were taken from involved skin of the forearm. After enzymatic digestion of the skin biopsies with Dispase II, fibroblasts were cultured in DMEM/F-12 containing 10% heat inactivated fetal calf serum (FCS), 100 U/mL penicillin, 100 μg/mL streptomycin, 2 mM L-glutamine and 2.5 μg/mL amphotericin B (all Invitrogen, Karlsruhe, Germany). Fibroblasts from passages 4-8 were used for the experiments. Data are expressed as mean±standard error of the mean (SEM).

[2] = tested on: fibroblasts from SSc patients; test: TGF-β and PDGF-induced total collagen secretion (SirCol assay); type: cell-based, human; details: 1 μM
Method: as §1
The isolation of fibroblasts from human SSc patients and culture conditions used in this study have been previously described (Akhmetshina A, Dees C, Pileckyte M, Maurer B, Axmann R, Jüngel A, et al., Dual inhibition of c-abl and PDGF receptor signaling by dasatinib and nilotinib for the treatment of dermal fibrosis, FASEB J. 2008; 22(7):2214-22). […] Data are expressed as mean±standard error of the mean (SEM). […]

SKH-1 mice epidermis = test: UVB-induced apoptosis (TUNEL) in skin of SKH-1 mice; type: in vivo, mouse; details: 75 mg/kg PO BID for 5 days before UVB 0.5 J/cm^2, vs vehicle
Description: Ultraviolet B (UVB) light is known to induce breaks in DNA (nicks) that can trigger the process of apoptosis, and these nicks can be labeled and visualized with terminal deoxynucleotidyl transferase dUTP nick end labeling (TUNEL). TUNEL technology identifies DNA breaks by labeling free 3′-OH terminals with modified (fluorescing) nucleotides in an enzymatic reaction that makes the damaged apoptotic cells fluoresce. This study was one of a series of pharmacology studies designed to determine the effects of the JNK inhibitor, Compound JNKi-1, on UVB-induced apoptosis in the skin of mice.
Female SKH-1 mice (Charles River, n=17 total) were obtained at a body weight of 15 g to 20 g. Mice were housed in regular shoebox cages and allowed to become acclimated for a minimum of 1 week. Mice were fed Harlan Teklad (No. 7001) 4% mouse/rat diet and water ad libitum and were maintained on a 12-hour light/dark cycle. […]
A Leica microscope with a CoolSNAP digital camera was used to obtain 5 random 20× magnification fluorescent images from five sections of skin epidermis and the number of TUNEL-positive green cells was counted to determine the average number of cells per animal and group (n=5).
Statistical one-way analysis of variance (ANOVA) was performed followed by Bonferroni's multiple comparison test (Graph Pad Prism). The data were expressed as mean±standard error of the mean (SEM).

[3] = 1 μM, 24 hr, compared to mock-treated fibroblasts

## O[C@H]1CC[C@H](Nc2ncc3nc(Nc4c(F)cc(F)cc4F)n([C@H]4CCOC4)c3n2)CC1 [JNKi-1, 4-((9-((3S)-tetrahydro-3-furanyl)-8-((2,4,6-trifluorophenyl)amino)-9H-purin-2-yl)amino)-trans-cyclohexanol]
[1]; 0.1 μM to 10 μM, 24 hr
  expression of extracellular matrix proteins (in words): reduced expression; also recorded: dose-dependently reduced
[1]; [3]
  reduction of col 1a1 mRNA level: 71±11%
  reduction of col 1a2 mRNA level: 61±13%
  reduction of fibronectin-1 mRNA level: 55±14%
[1]; 1 μM, compared to control
  reduction of collagen protein in the supernatant: 21±7%
[1]; tested 0.1 μM to 10 μM, 24 hr
  concentration at which maximal effects were observed: 1 µM
[2]
  TGF-β and PDGF-induced collagen secretion: modestly inhibited
SKH-1 mice epidermis
  number of TUNEL-positive cells in epidermis 24 hr post UV exposure: can inhibit apoptotic cell death; also recorded: significantly (p<0.01) decreased
